The numbers were not newly measured in patent publication US6479541B1, “Amiodarone-containing parenteral administration” (Baxter International, priority 2000, dated 2002), which cites them from elsewhere.

For this series the following is noted: dogs, intravenous; literature Gough et al. 1982.

For the substance polysorbate 80 [Tween 80], the cardiodepression / hypotension result is reported as “associated with cardiodepression, causing hypotension”.
